From patent publication US20210261512A1, “NOVEL COMPOUNDS” (INFLAZOME LIMITED, priority 2018, published 2021)

How the values were obtained:
[1] = molecular target: T1, NLRP3 (Homo sapiens, UniProt Q96P20); test: Human whole blood IL1β release assay; format: cell-based; settings: LPS 1 μg/ml, nigericin 10 μM, IL-1β AlphaLisa, 10 μM top dose (Example 2: top dose of 30 μM), read-out: HWB IC50
Method: For systemic delivery, the ability to inhibit NLRP3 when the compounds are present within the bloodstream is of great importance. For this reason, the NLRP3 inhibitory activity of a number of compounds in human whole blood was investigated in accordance with the following protocol.
Human whole blood in sodium-heparin or lithium-heparin tubes was obtained from healthy donors from a volunteer donor panel. • 1. Plate out 80 μl of whole blood containing 1 μg/ml of LPS in 96-well, clear bottom cell culture plate (Corning #3585) • 2. Add 10 μl compound (8 points half-log dilution with 10 μM top dose, unless stated otherwise) or vehicle (DMSO 0.1% FAC) to the appropriate wells • 3. Incubate for 3 hrs at 37° C., 5% CO2 • 4. Add 10 μl nigericin (Sigma #N7143) (10 μM FAC) to all wells • 5. Incubate for 1 hr at 37° C., 5% CO2 • 6. At the end of the incubation period, spin plates at 300×g for 5 mins to pellet cells and remove 20 μl of supernatant and add to 96-well v-bottom plates for IL-1β analysis (note: these plates containing the supernatants can be stored at −80° C. to be analysed at a later date) • 7. IL-1β was measured according to the manufacturer protocol (Perkin Elmer-AlphaLisa IL-1 Kit AL220F-5000) • 8. IC50 data is fitted to a non-linear regression equation (log inhibitor vs response-variable slope 4-parameters)

[2] = molecular target: T1, NLRP3; test: THP-1 cells pyroptosis assay; format: cell-based; set-up: Seed THP-1 cells (25,000 cells/well) containing 1.0 μg/ml LPS; host or cells: THP-1; settings: LPS 1.0 μg/ml, nigericin 5 μM, resazurin readout, 10 μM top dose (Example 2: top dose of 30 μM)
In short: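 Pyroptosis induced by 5 μM nigericin (1 h) in LPS-primed (1 μg/ml) THP-1 cells, 25,000/well in serum-free RPMI, after 3 h compound pre-treatment (8 points, 10 μM top unless stated). Surviving cells measured with 100 μM resazurin, Ex 560/Em 590; IC50 via variable-slope 4-parameter regression.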

T1 sequence (Q96P20 whole entry): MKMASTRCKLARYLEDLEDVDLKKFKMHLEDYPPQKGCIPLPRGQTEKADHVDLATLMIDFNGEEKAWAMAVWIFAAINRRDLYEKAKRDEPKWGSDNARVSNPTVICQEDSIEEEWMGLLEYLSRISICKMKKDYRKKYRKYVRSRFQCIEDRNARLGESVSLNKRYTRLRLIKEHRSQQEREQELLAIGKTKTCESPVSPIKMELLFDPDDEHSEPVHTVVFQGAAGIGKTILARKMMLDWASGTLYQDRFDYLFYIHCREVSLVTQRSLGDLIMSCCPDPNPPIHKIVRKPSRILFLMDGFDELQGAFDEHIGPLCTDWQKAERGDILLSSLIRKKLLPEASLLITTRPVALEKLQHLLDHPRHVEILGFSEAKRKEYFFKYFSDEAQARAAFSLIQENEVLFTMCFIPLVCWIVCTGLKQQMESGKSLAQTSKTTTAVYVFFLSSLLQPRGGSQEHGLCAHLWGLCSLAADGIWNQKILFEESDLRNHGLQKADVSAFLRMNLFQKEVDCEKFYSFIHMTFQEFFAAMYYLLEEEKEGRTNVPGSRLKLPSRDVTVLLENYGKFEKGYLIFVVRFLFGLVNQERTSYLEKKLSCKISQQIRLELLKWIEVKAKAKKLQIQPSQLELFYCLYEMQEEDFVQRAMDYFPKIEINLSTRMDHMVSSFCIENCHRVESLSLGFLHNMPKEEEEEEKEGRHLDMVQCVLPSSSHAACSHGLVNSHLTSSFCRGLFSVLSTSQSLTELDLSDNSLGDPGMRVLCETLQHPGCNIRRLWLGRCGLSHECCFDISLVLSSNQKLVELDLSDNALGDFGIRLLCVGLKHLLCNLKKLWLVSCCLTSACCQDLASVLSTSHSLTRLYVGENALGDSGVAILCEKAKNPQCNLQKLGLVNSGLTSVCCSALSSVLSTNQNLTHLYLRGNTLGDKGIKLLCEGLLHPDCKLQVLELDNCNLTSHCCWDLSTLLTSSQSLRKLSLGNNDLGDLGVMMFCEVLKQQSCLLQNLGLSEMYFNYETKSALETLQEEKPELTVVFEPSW

Row | Structure (SMILES) | IC50 [1] | IC50 [2]
1 | CN(C)C1CCN(S(=O)(=O)c2nnc(Nc3c4c(cc5c3CCC5)CCC4)[nH]2)C1 (centres unmarked) [Example 93, 5-((3-(dimethylamino)pyrrolidin-1-yl)sulfonyl)-N-(1,2,3,5,6,7-hexahydro-s-indacen-4-yl)-4H-1,2,4-triazol-3-amine] | ≤ 5 µM | ≤ 5 µM
2 | CN1CCCC1CNS(=O)(=O)c1nnc(Nc2c3c(cc4c2CCC4)CCC3)[nH]1 (centres unmarked) [Example 95, 5-((1,2,3,5,6,7-hexahydro-s-indacen-4-yl)amino)-N-((1-methylpyrrolidin-2-yl)methyl)-4H-1,2,4-triazole-3-sulfonamide] | ≤ 5 µM | ≤ 1 µM
3 | O=S(=O)(c1nnc(Nc2c3c(cc4c2CCC4)CCC3)[nH]1)N1CCC(N2CCCC2)C1 (centres unmarked) [Example 104, 5-([1,3′-bipyrrolidin]-1′-ylsulfonyl)-N-(1,2,3,5,6,7-hexahydro-s-indacen-4-yl)-4H-1,2,4-triazol-3-amine] | ≤ 5 µM | ≤ 0.5 µM
4 | O=S(=O)(NCCN1CCCC1)c1nnc(Nc2c3c(cc4c2CCC4)CCC3)[nH]1 [Example 108, 5-((1,2,3,5,6,7-hexahydro-s-indacen-4-yl)amino)-N-(2-(pyrrolidin-1-yl)ethyl)-4H-1,2,4-triazole-3-sulfonamide] | ≤ 5 µM | ≤ 0.5 µM
5 | CCN(CC)CCCNS(=O)(=O)c1nnc(Nc2c3c(cc4c2CCC4)CCC3)[nH]1 [Example 109, N-(3-(diethylamino)propyl)-5-((1,2,3,5,6,7-hexahydro-s-indacen-4-yl)amino)-4H-1,2,4-triazole-3-sulfonamide] | ≤ 1 µM | ≤ 0.5 µM
6 | CC(C)N(CCNS(=O)(=O)c1nnc(Nc2c3c(cc4c2CCC4)CCC3)[nH]1)C(C)C [Example 110, N-(2-(diisopropylamino)ethyl)-5-((1,2,3,5,6,7-hexahydro-s-indacen-4-yl)amino)-4H-1,2,4-triazole-3-sulfonamide] | ≤ 10 µM | ≤ 0.5 µM
7 | CC(C)N1CCN(S(=O)(=O)c2nnc(Nc3c4c(cc5c3CCC5)CCC4)[nH]2)CC1 [Example 117, N-(1,2,3,5,6,7-hexahydro-s-indacen-4-yl)-5-((4-isopropylpiperazin-1-yl)sulfonyl)-4H-1,2,4-triazol-3-amine] | ≤ 5 µM | ≤ 1 µM
8 | CN(C1CNC1)S(=O)(=O)c1nnc(Nc2c3c(cc4c2CCC4)CCC3)[nH]1 [Example 120, N-(azetidin-3-yl)-5-((1,2,3,5,6,7-hexahydro-s-indacen-4-yl)amino)-N-methyl-4H-1,2,4-triazole-3-sulfonamide] | ≤ 5 µM | ≤ 5 µM
9 | O=S(=O)(c1nnc(Nc2c3c(cc4c2CCC4)CCC3)[nH]1)N1CCCC1 [Example 122, N-(1,2,3,5,6,7-hexahydro-s-indacen-4-yl)-5-(pyrrolidin-1-ylsulfonyl)-4H-1,2,4-triazol-3-amine] | ≤ 10 µM | ≤ 5 µM
10 | O=S(=O)(c1nnc(Nc2c3c(cc4c2CCC4)CCC3)[nH]1)N1CCC(N2CCCC2)CC1 [Example 124, N-(1,2,3,5,6,7-hexahydro-s-indacen-4-yl)-5-((4-(pyrrolidin-1-yl)piperidin-1-yl)sulfonyl)-4H-1,2,4-triazol-3-amine] | ≤ 5 µM | ≤ 1 µM
11 | CN(C)CCCNS(=O)(=O)c1nnc(Nc2c3c(cc4c2CCC4)CCC3)[nH]1 [Example 125, N-(3-(dimethylamino)propyl)-5-((1,2,3,5,6,7-hexahydro-s-indacen-4-yl)amino)-4H-1,2,4-triazole-3-sulfonamide] | ≤ 5 µM | ≤ 0.5 µM
12 | O=S(=O)(NCCCN1CCCC1)c1nnc(Nc2c3c(cc4c2CCC4)CCC3)[nH]1 [Example 126, 5-((1,2,3,5,6,7-hexahydro-s-indacen-4-yl)amino)-N-(3-(pyrrolidin-1-yl)propyl)-4H-1,2,4-triazole-3-sulfonamide] | ≤ 5 µM | ≤ 1 µM
13 | CN1CCCC(CNS(=O)(=O)c2nnc(Nc3c4c(cc5c3CCC5)CCC4)[nH]2)C1 (centres unmarked) [Example 128, 5-((1,2,3,5,6,7-hexahydro-s-indacen-4-yl)amino)-N-((1-methylpiperidin-3-yl)methyl)-4H-1,2,4-triazole-3-sulfonamide] | ≤ 10 µM | ≤ 1 µM
